23 compounds from PubChem BioAssay AID248 (DTP/NCI, 2004) can be followed below.

The experiment relates to L1210 leukemia ip in BDF1 mice, survival T/C. Nature of the experiment: NCI In Vivo Anticancer Drug Screen. Data for tumor model L1210 Leukemia (intraperitoneal) in B6D2F1 (BDF1) mice. The following applies: endpoint: mean survival time, higher = longer survival. The procedure, abridged:
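Ratio derived from survival: compound-dosed mice over vehicle-dosed mice, all bearing a transplantable tumor.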

The mark [1] stands for this setting: dose: 25.0 mg/kg/injection, schedule: Q04DX002 (ip), vehicle: Klucel (hydroxypropylcellulose) (HPC).
Where [2] appears, read: dose: 100.0 mg/kg/injection, schedule: Q01DX001 (ip), vehicle: saline.
The mark [3] stands for this setting: dose: 200.0 mg/kg/injection, schedule: Q01DX001 (ip), vehicle: saline.
[4] abbreviates: dose: 400.0 mg/kg/injection, schedule: Q01DX001 (ip), vehicle: saline.
Setting [5] is: dose: 50.0 mg/kg/injection, schedule: Q01DX009 (ip), vehicle: Klucel (hydroxypropylcellulose) (HPC).
Setting [6] is: dose: 100.0 mg/kg/injection, schedule: Q01DX009 (ip), vehicle: Klucel (hydroxypropylcellulose) (HPC).
Setting [7] is: dose: 100.0 mg/kg/injection, schedule: Q04DX003 (ip), vehicle: Klucel (hydroxypropylcellulose) (HPC).
[8] abbreviates: dose: 200.0 mg/kg/injection, schedule: Q04DX003 (ip), vehicle: Klucel (hydroxypropylcellulose) (HPC).
Where [9] appears, read: dose: 100.0 mg/kg/injection, schedule: Q04DX002 (ip), vehicle: Klucel (hydroxypropylcellulose) (HPC).
[10] abbreviates: dose: 200.0 mg/kg/injection, schedule: Q04DX002 (ip), vehicle: Klucel (hydroxypropylcellulose) (HPC).
Where [11] appears, read: dose: 400.0 mg/kg/injection, schedule: Q04DX002 (ip), vehicle: Klucel (hydroxypropylcellulose) (HPC).
[12] abbreviates: dose: 100.0 mg/kg/injection, schedule: Q01DX009 (ip), vehicle: saline with Tween-80.
[13] abbreviates: dose: 200.0 mg/kg/injection, schedule: Q01DX009 (ip), vehicle: saline with Tween-80.
Where [14] appears, read: dose: 100.0 mg/kg/injection, schedule: Q01DX001 (ip), vehicle: Klucel (hydroxypropylcellulose) (HPC).
[15] abbreviates: dose: 200.0 mg/kg/injection, schedule: Q01DX001 (ip), vehicle: Klucel (hydroxypropylcellulose) (HPC).
The mark [16] stands for this setting: dose: 400.0 mg/kg/injection, schedule: Q01DX001 (ip), vehicle: Klucel (hydroxypropylcellulose) (HPC).

Structures are written as SMILES. Values joined by “and” are separate entries in the source; they are usually repeats but may differ in a detail not shown here. Equal entries are not always repeated. Toxic doses and inconclusive results are not listed.

For the compound `CC[CH2][Pb]([CH2]CC)([CH2]CC)[O]C(=O)C(F)(F)F`, the T/C runs as follows: (dose: 12.5 mg/kg/injection, schedule: Q04DX002 (ip), vehicle: Klucel (hydroxypropylcellulose) (HPC)) 107 % of control; under setting [1], 95 % of control.

Consider `O=C(Nc1cnccn1)C(F)(F)F`, for which the T/C runs as follows: under setting [2], 105 % of control; under setting [3], 97 % of control; under setting [4], 105 % of control.

On to `O=c1ccc(=O)c2c(=O)c3ccccc3c(=O)c1=2`, for which the T/C by setting is: under setting [5], 97 % of control; under setting [6], 95 % of control; under setting [7], 101 % of control; under setting [8], 103 % of control.

Take `CN1C(=O)C(Br)=C(Br)C1=O`: the T/C is 97 % of control (dose: 5.0 mg/kg/injection, schedule: Q01DX001 (ip), vehicle: saline) and 94 % of control (dose: 10.0 mg/kg/injection, schedule: Q01DX001 (ip), vehicle: saline).

On to `O=C1c2ccccc2C(=O)N1CC#CCN1C(=O)c2ccccc2C1=O`, for which the T/C under setting [9] was 102 % of control, the T/C under setting [10] is 91 % of control and the T/C under setting [11] is 112 % of control.

Take `O=S1c2ccccc2Oc2ccccc21`: the T/C runs as follows: under setting [9], 108 % of control; under setting [10], 108 % of control; under setting [11], 108 % of control.

In the case of `CNC(=O)Oc1ccccc1C(C)C`, the T/C was 91 % of control under setting [9]; 94 % of control under setting [10]; 95 % of control and 98 % of control under setting [11].

In the case of `Cc1cc(N(CCOS(C)(=O)=O)CCOS(C)(=O)=O)ccc1C=Nc1ccc(-c2csc(-c3ccc(Br)cc3)n2)cc1`, the T/C reads like this: (dose: 100.0 mg/kg/injection, schedule: Q01DX009 (ip), vehicle: saline) 109 % of control; under setting [7], 150 % of control; (dose: 150.0 mg/kg/injection, schedule: Q01DX009 (ip), vehicle: saline) 101 % of control; under setting [8], 91 % of control.

Regarding `c1ccc(Nc2n[n+](-c3ccccc3)no2)cc1`, the T/C is 106 % of control under setting [12]; 108 % of control (dose: 100.0 mg/kg/injection, schedule: Q04DX003 (ip), vehicle: saline with Tween-80); 101 % of control under setting [13]; 100 % of control (dose: 200.0 mg/kg/injection, schedule: Q04DX003 (ip), vehicle: saline with Tween-80); 108 % of control (dose: 400.0 mg/kg/injection, schedule: Q01DX009 (ip), vehicle: saline with Tween-80); 110 % of control (dose: 400.0 mg/kg/injection, schedule: Q04DX003 (ip), vehicle: saline with Tween-80).

Consider `NC(CSCC(N)=NCC1C2CC3CC(C2)CC1C3)=NCC1C2CC3CC(C2)CC1C3` (stereo not given), for which the T/C under setting [9] was 96 % of control.

In the case of `CC(=O)N1Cc2cccn2Cc2cc3c(cc21)OCO3`, the T/C runs as follows: under setting [1], 97 % of control; (dose: 50.0 mg/kg/injection, schedule: Q04DX002 (ip), vehicle: Klucel (hydroxypropylcellulose) (HPC)) 87 % of control; under setting [9], 97 % of control.

As for `CC(C)C(/C=N/N=C(N)N)=N\N=C(N)N`, the T/C by setting is: (dose: 15.0 mg/kg/injection, schedule: Q01DX Z (ip), vehicle: methylcellulose (MC)) 94 % of control; (dose: 30.0 mg/kg/injection, schedule: Q01DX Z (ip), vehicle: methylcellulose (MC)) 105 % of control; (dose: 60.0 mg/kg/injection, schedule: Q01DX Z (ip), vehicle: methylcellulose (MC)) 94 % of control; (dose: 120.0 mg/kg/injection, schedule: Q01DX Z (ip), vehicle: methylcellulose (MC)) 96 % of control.

For the compound `N#CCC(=O)N1CCc2ccccc2C1`, the T/C is 97 % of control under setting [12]; 94 % of control (dose: 100.0 mg/kg/injection, schedule: Q04DX002 (ip), vehicle: saline with Tween-80); 97 % of control under setting [13]; 105 % of control (dose: 200.0 mg/kg/injection, schedule: Q04DX002 (ip), vehicle: saline with Tween-80); 101 % of control (dose: 400.0 mg/kg/injection, schedule: Q04DX002 (ip), vehicle: saline with Tween-80).

On to `Cc1cc(C)nc(/N=C(/N)Nc2ccc(S(=O)(=O)NC(=O)Nc3ccccc3)cc2)n1`, for which the T/C runs as follows: under setting [2], 92 % of control; under setting [3], 98 % of control; under setting [4], 102 % of control.

Turning to `COc1cc2c(c3c1CCC(C)(C)O3)Cc1c(cc(OC)c(OC)c1CCC(C)(C)O)O2`, the T/C was 103 % of control under setting [14], 96 % of control under setting [15] and 92 % of control under setting [16].

On to `Cc1cccc(Cl)c1NC(=O)Cn1cccc1`, for which the T/C is 95 % of control (dose: 25.0 mg/kg/injection, schedule: Q01DX009 (ip), vehicle: Klucel (hydroxypropylcellulose) (HPC)); 95 % of control under setting [5]; 94 % of control (dose: 75.0 mg/kg/injection, schedule: Q01DX009 (ip), vehicle: Klucel (hydroxypropylcellulose) (HPC)); 100 % of control under setting [7]; 93 % of control under setting [8].

For `CC1(C)C2CC3C(=CCC4C(=O)C=CC(=O)C43)C1C2` (stereo not given), the T/C reads like this: under setting [7], 95 % of control; under setting [8], 93 % of control; (dose: 400.0 mg/kg/injection, schedule: Q04DX003 (ip), vehicle: Klucel (hydroxypropylcellulose) (HPC)) 95 % of control.

With `CCCCc1ccc(NC(=O)N(CCCl)N=O)cc1`, the T/C (dose: 6.0 mg/kg/injection, schedule: Q01DX009 (ip), vehicle: carboxymethylcellulose (CMC)) was 156 % of control; the T/C (dose: 33.0 mg/kg/injection, schedule: Q01DX009 (ip), vehicle: carboxymethylcellulose (CMC)) was 175 % of control; the T/C (dose: 37.5 mg/kg/injection, schedule: Q01DX001 (ip), vehicle: carboxymethylcellulose (CMC)) was 163 % of control; the T/C (dose: 50.0 mg/kg/injection, schedule: Q01DX009 (ip), vehicle: carboxymethylcellulose (CMC)) is 180 % of control; the T/C (dose: 75.0 mg/kg/injection, schedule: Q01DX001 (ip), vehicle: carboxymethylcellulose (CMC)) was 194 % of control; the T/C (dose: 75.0 mg/kg/injection, schedule: Q01DX009 (ip), vehicle: carboxymethylcellulose (CMC)) was 106 % of control. The T/C reads like this: (dose: 75.0 mg/kg/injection, schedule: Q04DX003 (ip), vehicle: saline with Tween-80) 120 % of control; (dose: 112.5 mg/kg/injection, schedule: Q01DX009 (ip), vehicle: carboxymethylcellulose (CMC)) 87 % of control; (dose: 150.0 mg/kg/injection, schedule: Q01DX001 (ip), vehicle: carboxymethylcellulose (CMC)) 260 % of control.

Consider `O=C(O)c1ccc(N=Cc2c(Cl)cccc2Cl)cc1`, for which the T/C under setting [6] is 104 % of control; the T/C (dose: 200.0 mg/kg/injection, schedule: Q01DX009 (ip), vehicle: Klucel (hydroxypropylcellulose) (HPC)) was 101 % of control; the T/C (dose: 400.0 mg/kg/injection, schedule: Q01DX009 (ip), vehicle: Klucel (hydroxypropylcellulose) (HPC)) is 104 % of control.

As for `CNC(=O)Nc1nc2ccc([N+](=O)[O-])cc2[nH]1`, the T/C is, setting by setting: under setting [2], 105 % of control; under setting [3], 103 % of control; under setting [4], 97 % of control.

Consider `Cc1cc(N(CCCl)CCCl)ccc1C=Nc1ccc(-c2csc(-c3ccccc3)n2)c(Cl)c1`, for which the T/C is, setting by setting: (dose: 100.0 mg/kg/injection, schedule: Q01DX001 (ip), vehicle: carboxymethylcellulose (CMC)) 98 % of control; (dose: 200.0 mg/kg/injection, schedule: Q01DX001 (ip), vehicle: carboxymethylcellulose (CMC)) 95 % of control; (dose: 400.0 mg/kg/injection, schedule: Q01DX001 (ip), vehicle: carboxymethylcellulose (CMC)) 107 % of control.

Regarding `CCOC(=N)CCl`, the T/C by setting is: (dose: 50.0 mg/kg/injection, schedule: Q04DX003 (ip), vehicle: saline) 101 % of control; (dose: 100.0 mg/kg/injection, schedule: Q04DX003 (ip), vehicle: saline) 95 % of control.

With `CCCCCCCCOc1ccc(C(c2ccccc2)(c2ccccc2)c2ccccc2)cc1`, the T/C was 90 % of control under setting [14], 89 % of control under setting [15] and 89 % of control under setting [16].
